Data from article PMC11456916, “A screen for cell envelope stress uncovers an inhibitor of prolipoprotein diacylglyceryl transferase, Lgt, in Escherichiacoli” (iScience, 2024).

Experiments:
[1] = test system: 356 CRISPRi constructs in E. coli ΔtolC-pore; assay: CRISPRi collection fitness screen with sub-inhibitory compound; type: cell-based; conditions: for Growth, mean colony biomass (n=4): +250 ng/ml Vancomycin
Description: To that end, we screened the E. coli CRISPRi collection in the ΔtolC-pore genetic background with a sub-inhibitory concentration of MAC-0452936 and measured the fitness of all 356 CRISPRi mutants (Figure 4C and Data S4). […] To that end, we introduced either an arabinose inducible copy of lgt supplied on the pCHAP9231 plasmid[48] or the pBAD19s plasmid as a control into E. coli ΔtolC-pore and tested the potency of MAC-0452936 (Figure 4E). […] To test this hypothesis, we constructed E. coli ΔlgtΔtolC-pore with pCHAP9231[48] so that lgt expression was driven solely by arabinose from the plasmid.
For screens of the CRISPRi collection with MAC-0452936, the mobile CRISPRi collection was first conjugated into E. coli ΔtolC-pore as previously described.[30] The CRISPRi collection was then arrayed on solid agar at 1536 density using the Singer-ROTOR, such that each CRISPRi strain is arrayed in technical quadruplicate. […] The screens were conducted without CRISPRi induction, using just the 5–10% basal knockdown from the pFD152 CRISPRi plasmid. Following overnight growth, plates were imaged using high-resolution scanners (Epson Perfection v750), and colony biomass for each mutant was determined.

[2] = test system: E. coli ΔtolC-pore harboring CRISPRi plasmids targeting lgt; assay: CRISPRi lgt knockdown MIC (low-copy enhancement); type: cell-based; conditions: two gRNAs targeting lgt, 100 ng/mL aTc
Description: We next turned to genetic approaches to confirm the mechanism of action of MAC-0452936. […] To that end, we screened the E. coli CRISPRi collection in the ΔtolC-pore genetic background with a sub-inhibitory concentration of MAC-0452936 and measured the fitness of all 356 CRISPRi mutants (Figure 4C and Data S4). […] Depletion of Lgt by CRISPRi provided supporting evidence that MAC-0452936 targeted Lgt in E. coli; however, we sought to confirm this observation using a parallel genetic approach. We hypothesized that MAC-0452936 potency would also be affected by high-copy expression of lgt. To that end, we introduced either an arabinose inducible copy of lgt supplied on the pCHAP9231 plasmid[48] or the pBAD19s plasmid as a control into E. coli ΔtolC-pore and tested the potency of MAC-0452936 (Figure 4E). Induction of lgt expression with arabinose suppressed the activity of MAC-0452936 by about 8-fold. […] To test this hypothesis, we constructed E. coli ΔlgtΔtolC-pore with pCHAP9231[48] so that lgt expression was driven solely by arabinose from the plasmid. […] To test this observation with MAC-0452936, we introduced an lpp deletion into our screening strain E. coli ΔtolC-pore and assessed the activity of our Lgt inhibitor in this mutant background. […]

Q: How did the “Growth, mean colony biomass (n=4)” value ([1]; gRNA asnS) turn out when `CN[C@H](CC(C)C)C(=O)N[C@H]1C(=O)N[C@@H](CC(N)=O)C(=O)N[C@H]2C(=O)N[C@H]3C(=O)N[C@H](C(=O)N[C@H](C(=O)O)c4cc(O)cc(O)c4-c4cc3ccc4O)[C@H](O)c3ccc(c(Cl)c3)Oc3cc2cc(c3O[C@@H]2O[C@H](CO)[C@@H](O)[C@H](O)[C@H]2O[C@H]2C[C@](C)(N)[C@H](O)[C@H](C)O2)Oc2ccc(cc2Cl)[C@H]1O` [Vancomycin] was run?
A: 0.957

Q: What about the “Growth represented as mean colony biomass” value ([1]; gRNA cdsA, 1μg/ml MAC0452936, 6ng/ml LolCDE-in-1, 250 ng/ml Vancomycin, 7 ng/ml CHIR090, n=4) of the same compound?
A: 1.2659

Q: And the “Growth, mean colony biomass (n=4)” value ([1]; gRNA csrA)?
A: 0.9477

Q: What about the “Growth, mean colony biomass (n=4)” value ([1]; gRNA dnaC) of the same compound?
A: 1.003

Q: What about the “Growth, mean colony biomass (n=4)” value ([1]; gRNA dut) of the same compound?
A: 1.0326

Q: What about the “Growth, mean colony biomass (n=4)” value ([1]; gRNA folA) of the same compound?
A: 1.027

Q: And the “Growth, mean colony biomass (n=4)” value ([1]; gRNA folC)?
A: 1.033

Q: And the “Growth, mean colony biomass (n=4)” value ([1]; gRNA ftsA)?
A: 0.9398

Q: And the “Growth, mean colony biomass (n=4)” value ([1]; gRNA glmS)?
A: 1.002

Q: And the “Growth, mean colony biomass (n=4)” value ([1]; gRNA hemD)?
A: 1.042

Q: And the “Growth, mean colony biomass (n=4)” value ([1]; gRNA lexA)?
A: 1.232

Q: What about the “Growth, mean colony biomass (n=4)” value ([1]; gRNA mnmA) of the same compound?
A: 1.044

Q: And the “Growth, mean colony biomass (n=4)” value ([1]; gRNA msbA)?
A: 1.015

Q: And the “Growth, mean colony biomass (n=4)” value ([1]; gRNA mukF)?
A: 1.002

Q: What about the “Growth, mean colony biomass (n=4)” value ([1]; gRNA nadK) of the same compound?
A: 0.9893

Q: And the “Growth, mean colony biomass (n=4)” value ([1]; gRNA prmC)?
A: 1.009

Q: And the “Growth, mean colony biomass (n=4)” value ([1]; gRNA pssA)?
A: 0.9581

Q: What about the “Growth, mean colony biomass (n=4)” value ([1]; gRNA ptsI) of the same compound?
A: 1.038

Q: What about the “Growth, mean colony biomass (n=4)” value ([1]; gRNA ribD) of the same compound?
A: 1.045

Q: What about the “Growth, mean colony biomass (n=4)” value ([1]; gRNA rne) of the same compound?
A: 1.0315

Q: What about the “Growth, mean colony biomass (n=4)” value ([1]; gRNA rplA) of the same compound?
A: 0.9936

Q: What about the “Growth, mean colony biomass (n=4)” value ([1]; gRNA rplX) of the same compound?
A: 1.03

Q: And the “Growth, mean colony biomass (n=4)” value ([1]; gRNA rpmC)?
A: 1.003

Q: And the “Growth, mean colony biomass (n=4)” value ([1]; gRNA rpoE)?
A: 1.036

Q: And the “Growth, mean colony biomass (n=4)” value ([1]; gRNA rpsG)?
A: 1.014

Q: What about the “Growth, mean colony biomass (n=4)” value ([1]; gRNA rpsK) of the same compound?
A: 0.9986

Q: And the “Growth, mean colony biomass (n=4)” value ([1]; gRNA rpsR)?
A: 0.9771

Q: And the “Growth, mean colony biomass (n=4)” value ([1]; gRNA rpsT)?
A: 1.039

Q: What about the “Growth, mean colony biomass (n=4)” value ([1]; gRNA suhB) of the same compound?
A: 0.9724

Q: What about the “Growth, mean colony biomass (n=4)” value ([1]; gRNA tsaE) of the same compound?
A: 0.9903

Q: What about the “Growth, mean colony biomass (n=4)” value ([1]; gRNA ygeN) of the same compound?
A: 0.9481

Q: What about the “Growth, mean colony biomass (n=4)” value ([1]; gRNA yqeL) of the same compound?
A: 1.455

Q: What about the “Growth, mean colony biomass (n=4)” value ([1]; gRNA zipA) of the same compound?
A: 1.731

Q: What about the “growth defect of the lgt CRISPRi mutant in the presence of compound” value ([1]; sub-inhibitory (¼ MIC) concentration, LB agar, basal knockdown) of the same compound?
A: did not demonstrate a growth defect

Q: What about the “sensitization upon depletion of Lgt with CRISPRi constructs” value [2] of the same compound?
A: not to either of the negative control antibiotics
